Reference: the Bradley open melting point set (2014)
Several values for one entry are separate records, joined by “and”; a condition that tells them apart may be missing. Equal entries are not always repeated.

Row | SMILES | melting point
1 | CCCCCCCCCCCCC [tridecane] | -5 °C
2 | CCOB(OCC)OCC [triethyl borate] | -85 °C
3 | CCN(CC)CC [triethylamine] | -115 °C
4 | CCP(=O)(CC)CC [triethylphosphine oxide] | 49 °C
5 | COC(OC)OC [trimethyl orthoformate] | -53 °C
6 | CP(C)(C)=S [trimethylphosphine sulfide] | 156 °C
7 | c1ccc(OP(Oc2ccccc2)Oc2ccccc2)cc1 [triphenyl phosphite] | 23 °C
8 | c1ccc2c(c1)c1ccccc1c1ccccc21 [triphenylene] | 199 °C
9 | c1ccc(C(c2ccccc2)c2ccccc2)cc1 [triphenylmethane] | 94 °C
10 | S=C=NC(c1ccccc1)(c1ccccc1)c1ccccc1 [triphenylmethyl isothiocyanate] | 135 °C
11 | Fc1cccc(P(c2cccc(F)c2)c2cccc(F)c2)c1 [tris(3-fluorophenyl)phosphine] | 62 °C
12 | Fc1c(F)c(F)c(B(c2c(F)c(F)c(F)c(F)c2F)c2c(F)c(F)c(F)c(F)c2F)c(F)c1F [tris(pentafluorophenyl)borane] | 128 °C
13 | CCN(Cc1ccncc1)C(=O)C(CO)c1ccccc1 (stereo not drawn) [tropicamide] | 96 °C
14 | NCCc1ccc(O)cc1 [tyramine] | 164 °C
15 | COc1ccccc1N1CCN(CCCNc2cc(=O)n(C)c(=O)n2C)CC1 [urapidil] | 156 °C
16 | CCCCC=O [valeraldehyde] | -92 °C
17 | CCCCC(=O)O [valeric acid] | -34 °C
18 | CCCCC(=O)c1ccccc1 [valerophenone] | -9 °C
19 | COc1cc(C(=O)NN)ccc1O [vanillic acid hydrazide] | 211 °C
20 | c1ccc2c(c1)Cc1ccccc1O2 [xanthene] | 100 °C (2×) and 102 °C
21 | OC[C@@H](O)[C@H](O)[C@@H](O)CO [xylitol] | 94 °C
22 | Cc1cn(C2CC(N=[N+]=[N-])C(CO)O2)c(=O)[nH]c1=O (stereo not drawn) [zidovudine] | 106 °C
23 | COC(CN1CCN(CC(O)C(OC)c2ccccc2)CC1)c1ccccc1 (stereo not drawn) [zipeprol] | 83 °C
